We go through four compounds from patent publication US20100069345A1, “Lanthanide-porphyrin complexes as anti-tumor agents” (priority 2005, published 2010).

In series [1] the test system is human cervical epitheloid carcinoma cells (HeLa). In words: MTT cell viability assay, HeLa. It counts as cell-based. Conditions: for IC50: MTT, 37° C., 48 h, mean ± SD of three experiments; for IC50 ratio cisplatin/complex, HeLa: IC50 of cisplatin divided by IC50 of complex. From the text:
(§1) Human cervical epitheloid carcinoma cells (HeLa), human hepatocellular carcinoma cells (HepG2 and Hep3B), human breast cancer cells (MCF-7), human coloadenocarcinoma cells (HCT-8), and normal human lung fibroblast cells (CCD-19Lu) were purchased from American Type Culture Collection (ATCC) Rockville, Md., USA. The human hepatocellular cancinoma cells QGY-7703, and the multi-drug resistant cell line QGY-TR50 derived from QGY-7703, were generously provided by Prof. Yong Xie (The Hong Kong University of Science and Technology, Hong Kong PRC). QGY-TR50 cells were isolated and cultured as described (J. Zhou, S. C. Cheng, D. Luo, Y. Xie Biochem. Biophys. Res. Commun. 2001, 280, 1237-1242). Human nasopharyngeal carcinoma cells (SUNE1 and its cisplatin-resistant variant—CNE2) were derived from poorly differentiated NPC in Chinese patients and were generously provided by Dr. S. W. Tsao (The University of Hong Kong, Hong Kong PRC). Cell culture flasks and 96-well microtitre plates were from Nalge Nunc Int. Culture medium, other medium constituents and phosphate buffer saline (PBS) were obtained by Gibco BRL Rockville, Md., USA. Cell Proliferation kit I (MTT) was purchased from Roche. Mannheim, Germany.
(In general: Formazan colour is commonly taken as a measure of viable cells.)

The subject of series [2] is human coloadenocarcinoma cells (HCT-8). In words: MTT cell viability assay, HCT-8. It counts as cell-based. Conditions: for IC50: MTT, 37° C., 48 h, mean ± SD; for IC50 ratio cisplatin/complex, HCT-8: IC50 of cisplatin divided by IC50 of complex.
Source text: as §1

The subject of series [3] is human nasopharyngeal carcinoma cells (SUNE1). In words: MTT cell viability assay, SUNE1. It counts as cell-based. The note with it: for IC50: MTT, 37° C., 48 h, mean ± SD; for IC50 ratio cisplatin/complex, SUNE1: IC50 of cisplatin divided by IC50 of complex.
Source text: as §1

Series [4] relates to cisplatin-resistant variant (CNE2) of human nasopharyngeal carcinoma cells. In words: MTT cell viability assay, CNE2. It counts as cell-based. Conditions: for IC50: MTT, 37° C., 48 h, mean ± SD.
Source text: as §1

Series [5] relates to human breast cancer cells (MCF-7). In words: MTT cell viability assay, MCF-7. It counts as cell-based. Conditions: MTT, 37° C., 48 h; mean ± SD.
Source text: as §1

The subject of series [6] is normal human lung fibroblast cells (CCD-19Lu). In words: MTT cell viability assay, CCD-19Lu. It counts as cell-based. Conditions: for IC50: MTT, 37° C., 48 h, mean ± SD; for IC50 ratio cisplatin/complex, CCD-19Lu: IC50 of cisplatin divided by IC50 of complex.
Source text: as §1

Series [7] deals with human hepatocellular carcinoma cells (HepG2). In words: MTT cell viability assay, HepG2. It counts as cell-based. Conditions: for IC50: MTT, 37° C., 48 h, mean ± SD.
Source text: as §1

For series [8], the system named is multi-drug resistant cell line QGY-TR50. In words: MTT cell viability assay, QGY-TR50. It counts as cell-based, human. The note with it: MTT, 37° C., 48 h; mean ± SD.
Source text: as §1

Series [9] relates to human hepatocellular cancinoma cells QGY-7703. In words: MTT cell viability assay, QGY-7703. The note with it: MTT, 37° C., 48 h; mean ± SD. It counts as cell-based.
Source text: as §1

Series [10] has as its system human hepatocellular carcinoma cells (Hep3B). In words: MTT cell viability assay, Hep3B. It counts as cell-based. The note with it: 37° C., 48 h, mean ± SD.
Source text: as §1

The subject of series [11] is HeLa cells. In words: Effect of 3-MA on 1-induced cytotoxicity (MTT). It counts as cell-based, human. Conditions: 3-MA 10 mM. The procedure:
HeLa cells were pre-treated with 3-MA (10 mM) for 1 h, and then with 1 for 24 h as indicated. Cell viability was measured using MTT assay *, P<0.001. Effect of 3-MA on 1-induced cytotoxicity. Cells were seeded on 96-well microtitre plates (8×10^3 cells per well). After overnight incubation, the cells were pre-incubated with 3-methyladenine (3-MA, 10 mM) for 1 hour and then in the presence of 1 (DMSO<1%) for 24 h. Cell viability was measured by MTT assay as described before.

Series [12] in a line: Stability by UV-visible in DMSO/Tris buffer. It counts as physicochemical. The note with it: DMSO/Tris buffer solution (1:9), 24 h, room temperature; complex 1 3 μM, complex 2b 7 μM. The procedure: UV-visible experiments. The absorption spectra of 3 μM of complex 1 in DMSO/Tris buffer solution (1:9) were monitored for 24 h. […] The complex was monitored over 24 h at room temperature and about 23% decrease in the Soret band intensity was recorded without any significant spectral shift in both Soret and Q-bands (FIG. 5). The absorption spectra of 7 μM of complex 2b in DMSO/Tris buffer solution (1:9) were also monitored for 24 h.

Series [13] is described as follows: Stability by UV-visible in presence of reduced glutathione. The note with it: 6 mM GSH in DMSO/Tris buffer solution (1:9). It counts as physicochemical. How it is done:
Moreover, concomitant band broadening in spectrum of complex 1 was observed after 24 h. No significant spectral shift and formation of new absorption band were observed. […] Comparing with the spectra of complex 1, the decrease in Soret band intensity of complex 2b is less significant. The intensities are only found to decrease in 2% and 19% after 2 h and 24 h, respectively. Also, there is no significant spectral shift and formation of new absorption band were observed (FIG. 8).

In another series the test system is calf thymus DNA. In words: Absorption titration with calf thymus DNA. Conditions: Tris buffer. It counts as binding. How it is done: The calf thymus DNA was purchased from Sigma-Aldrich Chemical Co. and was purified by phenol-chloroform extraction. The DNA was dissolved in buffer (5 mM Tris, 5 mM NaCl, pH 7.2). The concentration (per base pair) or calf thymus DNA was determined spectophotometrically on the basic of ε260, 13200 M^−1cm^−1bp.
Absorption Titration. Studying the interaction between drugs and DNA is imperative to pharmaceutical chemistry. Since complexation between a ligand molecule and a nucleic acid leads to optical changes, its binding can be studied using spectroscopic methods like fluorescence and electronic absorption spectroscopy (C. V. Kumar, E. H. Asuncion, J. Am. Chem. Soc. 1993, 115, 8547-8553). The binding interactions of lanthanide (III) porphyrin complexes with calf thymus DNA were investigated using UV-vis spectroscopy and depicted in FIGS. 9 and 10 (selected absorption curves were shown for clear plot). By monitoring wavelengths at 410 nm (complex 1) and 430 nm (complex 2b), successive additions of calf thymus DNA to the respective complexes in Tris buffer solution containing <5% DMSO were done until saturation. Moderate hyprochromicities of 27% and 23% in complexes 1 and 2b were found without significant bathochromic spectral shift. […] The values of binding constant K were calculated from a plot of D/Δεap versus D based on the following equation:
Where D is the concentration of DNA, Δεap=|ΔεA−ΔεB| wherein εA=Aobs/[complex], and Δε=|ΔεB−ΔεF|; εB and εF correspond to the extinction coefficients of DNA-bound lanthanide(III) porphyrin complex adduct and its free complex, respectively. By monitoring absorbance at 410 nm (complex 1) and 430 nm (complex 2b), plots of D/Δεap against D are inserted in FIGS. 9 and 10. Linear curves in two graphs were plotted with slopes of 4.63×10^−5 (complex 1) and 3.60×10^−5 (complex 2b) (both R=0.99).

Series [14] concerns HeLa cells. In words: Confocal microscopy with AO/EB staining. It counts as cell-based, human. The note with it: complex 1 0.2 μM 20 h, complex 2b 10 μM 16 h. From the text:
Confocal Microscopic Experiment. By examining cell morphology under scanning confocal microscopy, the type of cell death can be distinguished. Early phase of apoptosis is characterized by the formation of apoptotic bodies when the integrity of the cell membrane is maintained without cell lysis. On the other hand, necrosis is characterized by cell lyses with the leaking out of internal cellular components such as DNA. With ethidium bromide (DNA stain) and acridine orange (cell membrane stain) as staining agents, normal, apoptotic and necrotic cells can be distinguished under laser confocal microscopy (Chan et. al., Inorg. Chem. 2002, 41, 3161-3171).

Where [15] appears, read: IC50 of cisplatin divided by IC50 of complex.

One may read the IC50 as the concentration needed to halve the response being measured. A low value points to greater potency. For `N.N.[Cl][Pt][Cl]` [Cisplatin, cis-diamminedichloroplatinum[II], reference compound], the concentration for half-maximal inhibition (IC50) in series [1] was found to be 14.2 ± 8.2 µM; in series [2], 26.1 ± 2.1 µM; in [3] it was 11.8 ± 1.2 µM; in [4] it was 57.6 ± 4.6 µM; in series [5], 35.4 ± 5 µM; in series [6], 90.6 ± 42.3 µM. Besides, the IC50 in series [7] turned out to be 4.76 ± 0.7 µM; in series [8], 32.6 ± 1.94 µM; in series [9], 45.8 ± 4.13 µM; in series [10] it was 39.8 ± 2.38 µM.

For `C1=Cc2nc1c(-c1ccccc1)c1ccc([n-]1)c(-c1ccccc1)c1nc(c(-c3ccccc3)c3ccc([n-]3)c2-c2ccccc2)C=C1.CC(=O)C=C(C)[O-].[Yb+3]` [Complex 2a], in series [1], the “IC50 ratio cisplatin/complex, HeLa” value came out at 2.1. Moreover, the half-inhibitory concentration (IC50) in [1] was 6.9 ± 0.1 µM; in [2] it was 15.2 ± 6.1 µM; in series [3] it was 16.2 ± 1.6 µM; in series [5], > 100 µM; in series [6], 25.1 ± 2.6 µM; in series [7], 17.1 ± 1.3 µM. In series [2], the “IC50 ratio cisplatin/complex, HCT-8” value came out at 1.7. In addition, in series [3], the “IC50 ratio cisplatin/complex, SUNE1” value was 0.7. Besides, in series [6], the “IC50 ratio cisplatin/complex, CCD-19Lu” value was found to be 3.6. Also, the “IC50 ratio cisplatin/complex, HepG2” value in series [7] (setting [15]) turned out to be 0.3.

With `Cn1cnc(N)c2ncnc1-2` [Complex 3-MA, 3-methyladenine, reference compound], in the series with HeLa cells [11], the “cell viability after pre-treatment with 3-MA alone” value is “did not affect cell viability”.

On to [Yb2(TPP)2]μ-C2O4 [Complex 2b], for which the “IC50 ratio cisplatin/complex, HeLa” value in [1] is given as 7.0. For the same compound, the concentration for half-maximal inhibition (IC50) in [1] was 2.1 ± 0.3 µM; in series [2], 5.6 ± 1.5 µM; in [3] it was 9.4 ± 0.3 µM; in series [4] it was 16.8 ± 0.01 µM; in [5], > 100 µM; in [6], 16 ± 2.9 µM. For the same compound, the “IC50 ratio cisplatin/complex, HCT-8” value in series [2] was found to be 4.6. Also, the “IC50 ratio cisplatin/complex, SUNE1” value in series [3] was 1.2. Also, the “IC50 ratio cisplatin/complex, CNE2” value in [4] (setting [15]) was found to be 3.4. In addition, in series [6], the “IC50 ratio cisplatin/complex, CCD-19Lu” value was 5.6. The “decrease in Soret band intensity” value in [12] was found to be 5%. Also, the “decrease in Soret band intensity, reduced glutathione, 2 h” value in series [13] (2 h) stood at 2%. Moreover, the “decrease in Soret band intensity, reduced glutathione, 24 h” value in series [13] (24 h) is 19%. Also, the “hyprochromicity on addition of calf thymus DNA” value with calf thymus DNA (<5% DMSO, until saturation, 410 nm (1), 430 nm (2b)) is 23%. Besides, in the series on calf thymus DNA (UV-vis absorption titration, 20° C.), the “binding constant K with calf thymus DNA” value was “(5.49±0.8)×10^5 mol^−1dm^3”. In addition, the “cell morphology (type of cell death) under confocal microscopy” value in the series on HeLa cells [14] was “both living and apoptotic cells were observed”.
